# Test results from patent publication US6638972B2, “Chroman and benzofuran derivatives as 5-hydroxytryptamine-6 ligands” (Wyeth, priority 2001, dated 2003).
# Counter-ions that a name gives are not always drawn. Like-named read-outs stand apart in the source and are kept apart here.
# Legend:
# [1] = molecular target: T1, human cloned 5-HT6 receptors (Homo sapiens, UniProt P50406); assay: 5-HT6 binding affinity ([3H]-LSD displacement, membranes of Hela cells expressing human cloned 5-HT6 receptors); settings: [3H]-LSD 3.0 nM, Hela cell membranes, 120 min at room temperature
# T1 construct: expressed in transfected cells; host or cells: HeLa cells (membrane preparation)
# T1 sequence (P50406 whole entry): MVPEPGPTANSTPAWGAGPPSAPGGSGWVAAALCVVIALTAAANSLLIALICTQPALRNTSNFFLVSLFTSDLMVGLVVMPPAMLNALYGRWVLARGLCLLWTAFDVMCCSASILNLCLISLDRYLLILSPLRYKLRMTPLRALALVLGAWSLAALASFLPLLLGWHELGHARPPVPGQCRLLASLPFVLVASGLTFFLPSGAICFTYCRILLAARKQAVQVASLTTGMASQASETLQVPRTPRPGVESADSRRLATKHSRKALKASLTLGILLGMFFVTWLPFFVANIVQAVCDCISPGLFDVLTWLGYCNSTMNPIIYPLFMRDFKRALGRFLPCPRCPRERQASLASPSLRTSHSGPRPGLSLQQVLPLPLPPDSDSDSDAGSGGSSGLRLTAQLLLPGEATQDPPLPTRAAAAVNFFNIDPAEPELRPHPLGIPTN
# Description: The affinity of test compounds for the serotonin 5-T6 receptor is evaluated in the following manner. Cultured Hela cells expressing human cloned 5-HT6 receptors are harvested and centrifuged at low speed (1,000×g) for 10.0 min to remove the culture media. The harvested cells are suspended in half volume of fresh physiological phosphate buffered saline solution and recentrifuged at the same speed. This operation is repeated. The collected cells are then homogenized in ten volumes of 50 mM Tris.HCl (pH 7.4) and 0.5 mM EDTA. The homogenate is centrifuged at 40,000×g for 30.0 min and the precipitate is collected. The obtained pellet is resuspended in 10 volumes of Tris.HCl buffer and recentrifuged at the same speed. The final pellet is suspended in a small volume of Tris.HCl buffer and the tissue protein content is determined in aliquots of 10-25 μl volumes. Bovine Serum Albumin is used as the standard in the protein determination according to the method described in Lowry et al., J. Biol. Chem., 193:265 (1951). The volume of the suspended cell membranes is adjusted to give a tissue protein concentration of 1.0 mg/ml of suspension. The prepared membrane suspension (10 times concentrated) is aliquoted in 1.0 ml volumes and stored at −70° C. until used in subsequent binding experiments.
# Binding experiments are performed in a 96 well microtiter plate format, in a total volume of 200 μl. […] The test compounds are added in 20.0 μl volume.
# The reaction is allowed to proceed in the dark for 120 min at room temperature, at which time, the bound ligand-receptor complex is filtered off on a 96 well unifilter with a Packard Filtermate® 196 Harvester. The bound complex caught on the filter disk is allowed to air dry and the radioactivity is measured in a Packard TopCount® equipped with six photomultiplier detectors, after the addition of 40.0 μl Microscint®-20 scintillant to each shallow well. The unifilter plate is heat-sealed and counted in a PackardTopCount® with a tritium efficiency of 31.0%.
# Binding in the presence of varying concentrations of test compound is expressed as a percentage of specific binding in the absence of test compound. The results are plotted as log % bound versus log concentration of test compound. […] A linear regression line of data points is plotted, from which the IC50 value is determined and the Ki value is determined based upon the following equation: […]
# where L is the concentration of the radioactive ligand used and KD is the dissociation constant of the ligand for the receptor, both expressed in nM.
SMILES,melting point,Ki ([1]; read-out: 5-HT6 Binding Ki),Ki ([1]; 5-HT6 Binding Ki)
"c1ccc(COCCCNCC2CCc3ccc(OCc4ccccc4)cc3O2)cc1 (stereo not shown) (as salt: hydrochloride) [Example 11, (7-benzyloxy-chroman-2-ylmethyl)-(3-benzyloxy-propyl)-amine]",138 to 139 °C,–,–
"OCCCNCC1Cc2ccc(OCc3ccccc3)cc2O1 (stereo not shown) [Example 53, 3-[(6-benzyloxy-2,3-dihydro-benzofuran-2-ylmethyl)-amino]-propan-1-ol]",125 to 127 °C,339 nM,–
"OC[C@H](CSCc1ccccc1)NCC1CCc2ccc(OCc3ccccc3)cc2O1 (stereo partly drawn) [Example 37, (2R)-2-[(7-benzyloxy-chroman-2-ylmethyl)-amino]-3-benzylsulfanyl-propan-1-ol]",59 to 65 °C,303 nM,–
"CCCCNCC1CCc2ccc(OCc3ccccc3)cc2O1 (stereo not shown) [Example 12, (7-benzyloxy-chroman-2-ylmethyl)-butyl-amine]",–,43 nM,–
"c1ccc(CNCc2cc3ccc(OCc4ccccc4)cc3o2)cc1 [Example 54, benzyl-(6-benzyloxy-benzofuran-2-ylmethyl)-amine]",198 to 200 °C,1350 nM,–
"O=[N+]([O-])c1ccc(OCCCNCC2CCc3ccc(OCc4ccccc4)cc3O2)cc1 (stereo not shown) [Example 32, (7-benzyloxy-chroman-2-ylmethyl)-[3-(4-nitro-phenoxy)-propyl]-amine]",118 to 120 °C,157 nM,–
"OCCCNCC1CCc2ccc(Oc3ccccc3)cc2O1 (stereo not shown) (as salt: hydrochloride) [Example 15, 3-[(7-phenoxy-chroman-2-ylmethyl)-amino]-propan-1-ol]",178 to 179 °C,–,–
"CCCCNCC1CCc2ccc(OCc3ccccc3)cc2O1 (stereo not shown) (as salt: hydrochloride) [Example 12, (7-benzyloxy-chroman-2-ylmethyl)-butyl-amine]",150 to 151 °C,–,–
"Cc1nc(COc2ccc3c(c2)OC(CNCCCO)CC3)cs1 (stereo not shown) (as salt: salt) [Example 23, 3-{[7-(2-methyl-thiazol-4-ylmethoxy)-chroman-2-ylmethyl]-amino}-propan-1-ol]",94 to 102 °C,–,–
"Cc1nc(COc2ccc3c(c2)OC(CNCCCO)CC3)cs1 (stereo not shown) [Example 23, 3-{[7-(2-methyl-thiazol-4-ylmethoxy)-chroman-2-ylmethyl]-amino}-propan-1-ol]",–,–,41 nM
"OCCCNCC1CCc2ccc(OCc3ccccc3Cl)cc2O1 (stereo not shown) [Example 14, 3-{[7-(2-chloro-benzyloxy)-chroman-2-ylmethyl]-amino}-propan-1-ol]",–,38 nM,–
"CCCCOCCCNCC1CCc2ccc(OCc3ccccc3)cc2O1 (stereo not shown) (as salt: hydrochloride) [Example 8, (7-benzyloxy-chroman-2-ylmethyl)-(3-butoxy-propyl)-amine]",130 to 132 °C,–,–
"c1ccc(COCCCNCC2CCc3ccc(OCc4ccccc4)cc3O2)cc1 (stereo not shown) [Example 11, (7-benzyloxy-chroman-2-ylmethyl)-(3-benzyloxy-propyl)-amine]",–,27 nM,–
"OCCCNCC1CCc2cc(Cl)c(OCc3ccccc3)cc2O1 (stereo not shown) [Example 29, 3-{[(7-Benzyloxy)-6-chlorochroman-2-ylmethyl]amino}propan-1-ol Fumaric Acid Salt]",–,34 nM,–
"OCCCNCC1CCc2ccc(OCC3CCCCC3)cc2O1 (stereo not shown) [Example 13, 3-[(7-cyclohexylmethoxy-chroman-2-ylmethyl)-amino]-propan-1-ol]",–,357 nM,–
"OCCCNCC1CCc2ccc(OCc3ccccc3Cl)cc2O1 (stereo not shown) (as salt: hydrochloride) [Example 14, 3-{[7-(2-chloro-benzyloxy)-chroman-2-ylmethyl]-amino}-propan-1-ol]",114 to 115 °C,–,–
"OCCCNCCC1CCc2ccc(OCc3ccccc3)cc2O1 (stereo not shown) [Example 42, 3-{[2-(7-Benzyloxy)chroman-2-yl]ethylamino}propan-1-ol Hydrochloride]",–,107 nM,–
"OCCCNCC1CCc2ccc(OCCc3ccccc3)cc2O1 (stereo not shown) [Example 22, 3-{[(7-(Phenethyloxy)chroman-2-ylmethyl]amino}propan-1-ol Hydrochloride]",–,101 nM,–
OCCNC[C@H]1CCc2ccc(OCc3ccccc3)cc2O1 [Example 44],196 to 197 °C,10 nM,–

SMILES,melting point,Ki ([1]; read-out: 5-HT6 Binding Ki),Ki ([1]; 5-HT6 Binding Ki)
"c1ccc(CNCC2CCc3ccc(OCc4ccccc4)cc3O2)cc1 (stereo not shown) [Example 7, Benzyl-[(7-benzyloxy)chroman-2-yl]methylamine Hydrochloride]",–,26 nM,–
"Cc1nc(COc2ccc3c(c2)OC(CNCCCO)CC3)cs1 (stereo not shown) (as salt: HCl) [Example 24, 3-{[7-(2-methyl-thiazol-4-ylmethoxy)-chroman-2-ylmethyl]-amino}-propan-1-ol]",123 to 128 °C,–,–
"CN(CCCO)CC1CCc2ccc(OCc3ccccc3)cc2O1 (stereo not shown) [Example 30, 3-{[(7-benzyloxy)chroman-2-ylmethyl]methylamino}propan-1-ol Fumaric Acid Salt]",–,27 nM,–
"COCCCNC[C@H]1CCc2ccc(OCc3ccccc3)cc2O1 [Example 46, [(2R)-7-benzyloxy-chroman-2-ylmethyl]-(3-methoxy-propyl)-amine]",128 to 129 °C,25 nM,–
"OCCCNCC1CCc2ccc(Oc3ccccc3)cc2O1 (stereo not shown) [Example 15, 3-[(7-phenoxy-chroman-2-ylmethyl)-amino]-propan-1-ol]",–,283 nM,–
"O=c1ccc2ccc(OCCCNCC3CCc4cc(Cl)c(OCc5ccccc5)cc4O3)cc2o1 (stereo not shown) [Example 36, 7-{3-[(7-benzyloxy-6-chloro-chroman-2-ylmethyl)-amino]-propoxy}-chromen-2-one]",92 to 95 °C,43 nM,–
"Clc1cccc(OCCCNCC2CCc3ccc(OCc4ccccc4)cc3O2)c1 (stereo not shown) [Example 34, (7-benzyloxy-chroman-2-ylmethyl)-[3-(3-chloro-phenoxy)-propyl]-amine]",110 to 116 °C,192 nM,–
"O=[N+]([O-])c1cccc(OCCCNCC2CCc3ccc(OCc4ccccc4)cc3O2)c1 (stereo not shown) [Example 33, (7-benzyloxy-chroman-2-ylmethyl)-[3-(3-nitro-phenoxy)-propyl]-amine]",82 to 87 °C,69 nM,–
"Cc1nc(COc2ccc3c(c2)OC(CNCCCO)CC3)cs1 (stereo not shown) [Example 24, 3-{[7-(2-methyl-thiazol-4-ylmethoxy)-chroman-2-ylmethyl]-amino}-propan-1-ol]",–,–,120 nM
"OCCCNC[C@H]1CCc2ccc(OCc3ccccc3)cc2O1 [Example 45, 3-{[(2R)-7-benzyloxy-chroman-2-ylmethyl]-amino}-propan-1-ol]",119 °C,9 nM,–
"NCC1CCc2ccc(OCc3ccccc3)cc2O1 (stereo not shown) [Example 6, [(7-Benzyloxy)chroman-2-yl]methylamine Hydrochloride]",–,15 nM,–
"OCCNCC1CCc2ccc(OCc3ccccc3)cc2O1 (stereo not shown) (as salt: hydrochloride) [Example 9, 2-[(7-benzyloxy-chroman-2-ylmethyl)-amino]-ethanol]",200 to 201 °C,–,–
"CCCCOCCCNCC1CCc2ccc(OCc3ccccc3)cc2O1 (stereo not shown) [Example 8, (7-benzyloxy-chroman-2-ylmethyl)-(3-butoxy-propyl)-amine]",–,16 nM,–
"OCCNCC1CCc2ccc(OCc3ccccc3)cc2O1 (stereo not shown) [Example 9, 2-[(7-benzyloxy-chroman-2-ylmethyl)-amino]-ethanol]",–,12 nM,–
"OCCCNCC1CCc2ccc(OCC3CCCCC3)cc2O1 (stereo not shown) (as salt: hydrochloride) [Example 13, 3-[(7-cyclohexylmethoxy-chroman-2-ylmethyl)-amino]-propan-1-ol]",159 to 160 °C,–,–
"c1ccc(CCCNCC2CCc3ccc(OCc4ccccc4)cc3O2)cc1 (stereo not shown) [Example 10, (7-benzyloxy-chroman-2-ylmethyl)-(3-phenyl-propyl)-amine]",–,44 nM,–
"OCCCNCc1cc2ccc(OCc3ccccc3)cc2o1 [Example 55, 3-[(6-benzyloxy-benzofuran-2-ylmethyl)-amino]-propan-1-ol]",145 to 147 °C,1180 nM,–
"OCCNCC1Cc2ccc(OCc3ccccc3)cc2O1 (stereo not shown) [Example 51, 2-{[6-(Benzyloxy)-2,3-dihydrobenzofuran-2-ylmethyl]amino}ethanol Hydrochloride]",–,386 nM,–
"c1ccc(CCCNCC2CCc3ccc(OCc4ccccc4)cc3O2)cc1 (stereo not shown) (as salt: hydrochloride) [Example 10, (7-benzyloxy-chroman-2-ylmethyl)-(3-phenyl-propyl)-amine]",138 to 139 °C,–,–
